Laboratory results published in the NIST ThermoML archive (doi:10.1021/je050116g).

Experiments:
[1] = relative permittivity at various frequencies (dimensionless); xn = mol fraction of the nth substance listed; details: 298.15 K, 101.33 kPa, Liquid, Frequency=0.03 MHz, Parallel plate capacitor
[2] = xn = mol fraction of the nth substance listed; details: 298.15 K, 101.33 kPa, Liquid
[3] = 298.15 K; 101.33 kPa; Liquid

CCCCCCO [hexan-1-ol] + CCCCCCCCCCCC
Details | mass density [kg/m3] | relative permittivity
[1], x1 = 0.000504 | – | 2.00799
[1], x1 = 0.001087 | – | 2.00873
[1], x1 = 0.001795 | – | 2.00963
[1], x1 = 0.002783 | – | 2.01089
[1], x1 = 0.004043 | – | 2.0125
[1], x1 = 0.005459 | – | 2.0143
[1], x1 = 0.006744 | – | 2.0159
[1], x1 = 0.008507 | – | 2.01802
[1], x1 = 0.01046 | – | 2.02024
[1], x1 = 0.01278 | – | 2.02269
[1], x1 = 0.01656 | – | 2.02639
[1], x1 = 0.02 | – | 2.02952
[1], x1 = 0.02535 | – | 2.03412
[1], x1 = 0.03116 | – | 2.03887
[1], x1 = 0.03741 | – | 2.04388
[1], x1 = 0.04472 | – | 2.0497
[1], x1 = 0.05324 | – | 2.05652
[1], x1 = 0.06176 | – | 2.06346
[1], x1 = 0.07197 | – | 2.072
[1], x1 = 0.08324 | – | 2.08177
[1], x1 = 0.0941 | – | 2.09164
[1], x1 = 0.1052 | – | 2.10222
[2], x1 = 0.00175 | 745.477 | –
[2], x1 = 0.0046 | 745.539 | –
[2], x1 = 0.00826 | 745.625 | –
[2], x1 = 0.01788 | 745.888 | –
[2], x1 = 0.02646 | 746.157 | –
[2], x1 = 0.03537 | 746.455 | –
[2], x1 = 0.04959 | 746.947 | –
[2], x1 = 0.0656 | 747.525 | –
[2], x1 = 0.07934 | 748.03 | –
[2], x1 = 0.09708 | 748.704 | –

CO [methanol]
Details | mass density [kg/m3]
[3] | 786.538

CCCCCCCCCO [nonan-1-ol]
Details | mass density [kg/m3]
[3] | 824.263

CCCCCCCCCO [nonan-1-ol] + CCCCCCCCCCCC
[2]
Details | mass density [kg/m3]
x1 = 0.00099 | 745.467
x1 = 0.0047 | 745.637
x1 = 0.00777 | 745.786
x1 = 0.01456 | 746.133
x1 = 0.02651 | 746.79
x1 = 0.03533 | 747.291
x1 = 0.05117 | 748.212
x1 = 0.06465 | 749.011
x1 = 0.08043 | 749.97
x1 = 0.09832 | 751.064

CCCCCCCCO [octan-1-ol]
Details | mass density [kg/m3]
[3] | 821.694

CCCCCCCCO [octan-1-ol] + CCCCCCCCCCCC
Details | mass density [kg/m3] | relative permittivity
[1], x1 = 0.000468 | – | 2.00782
[1], x1 = 0.000994 | – | 2.0085
[1], x1 = 0.00174 | – | 2.00946
[1], x1 = 0.002707 | – | 2.0107
[1], x1 = 0.003781 | – | 2.01209
[1], x1 = 0.005049 | – | 2.01375
[1], x1 = 0.006519 | – | 2.01566
[1], x1 = 0.008207 | – | 2.01774
[1], x1 = 0.009844 | – | 2.01966
[1], x1 = 0.01266 | – | 2.02275
[1], x1 = 0.01671 | – | 2.02679
[1], x1 = 0.02183 | – | 2.03146
[1], x1 = 0.02777 | – | 2.03652
[1], x1 = 0.03323 | – | 2.04101
[1], x1 = 0.0398 | – | 2.04628
[1], x1 = 0.04865 | – | 2.05338
[1], x1 = 0.05937 | – | 2.06205
[1], x1 = 0.06843 | – | 2.06953
[1], x1 = 0.0778 | – | 2.07741
[1], x1 = 0.08823 | – | 2.08648
[1], x1 = 0.09795 | – | 2.0952
[1], x1 = 0.111 | – | 2.10743
[2], x1 = 0.00204 | 745.513 | –
[2], x1 = 0.00419 | 745.594 | –
[2], x1 = 0.00734 | 745.718 | –
[2], x1 = 0.01454 | 746.026 | –
[2], x1 = 0.02591 | 746.56 | –
[2], x1 = 0.03144 | 746.83 | –
[2], x1 = 0.04912 | 747.72 | –
[2], x1 = 0.06408 | 748.489 | –
[2], x1 = 0.08146 | 749.394 | –
[2], x1 = 0.1014 | 750.468 | –

CCCCCO [pentan-1-ol]
Details | mass density [kg/m3]
[3] | 810.883

CCCO [propan-1-ol]
Details | mass density [kg/m3]
[3] | 799.564
